# Measured values published in patent US20040192686A1, “Benzoazine mono-N-oxides and benzoazine 1,4 dioxides and compositions therefrom for the therapeutic use in cancer treatments” (Auckland Uniservices Limited, priority 2003, published 2004).
# pIC50: −log10 of the molar value. Where a name gives a salt, the structure may show the parent alone. Read-outs that look alike come from different tables or passages of the source.
# Legend:
# [1] = test system: HT29 cells; assay: TPZ potentiation test: IC50 of TPZ with and without potentiator, anoxic HT29 cells; type: cell-based, human; conditions: 4 hr anoxic exposure of HT29 cells
# [2] = test system: HT29 colon carcinoma cells; assay: IC50 assay of potentiator alone, HT29 cells, 4 hr anoxic exposure, sulphorhodamine B staining; type: cell-based, human; conditions: cell density by sulphorhodamine B five days after washing out
# [3] = Approximate solubility limit in Alpha MEM culture medium containing 5% fetal calf serum; type: physicochemical; conditions: dilution from DMSO stock solutions; for solubility: plasma or biological fluid, kinetic from dmso stock
# [4] = test system: HT29 human colon carcinoma cells; assay: Cytotoxicity (plating efficiency) in stirred single cell suspensions of HT29 cells, anoxic or aerobic
# Text: Cultures were maintained at <10 ppm O2 under a continuously-flowing stream of 5% CO2 in nitrogen and were sampled at intervals to determine plating efficiency.
# Experimental conditions were as for FIG. 2, except that the gas phase was 5% CO2 in air. Values are means and error bars are ranges for duplicate cultures.
# Drug exposure time was 1 hr. Error bars represent the range for duplicate determinations.
# [5] = test system: HT29 cells; assay: Radiosensitisation of anoxic HT29 cells; type: cell-based, human; conditions: 0.6 mM of each agent; anoxic HT29 cells irradiated 5 min after drug addition
# Experimental: Anoxic cell suspensions were irradiated 5 min after addition of pre-equilibrated anoxic drug solutions. Data are shown for duplicate determinations, and are fitted using a linear-quadratic model
# [6] = test system: hypoxic (radioresistant) cells in HT29 tumours; assay: HT29 tumour xenograft excision assay: clonogenic survivors 18 hr after radiation and drug; type: in vivo, mice; conditions: TPZ alone 0.133 mmol/kg i.p. 5 minutes after whole body radiation (20 Gy); HT29 xenografts; clonogenic survivors at 18 hr
# Experimental: Animals with subcutaneous tumours (ca 300 mg) received whole body radiation (RAD; 20 Gy) to sterilise oxygenated tumour cells. Activity of drugs against the hypoxic survivors was determined by intraperitoneal administration of solutions in 5% DMSO/saline 5 min after radiation, using TPZ alone (133 μmol/kg) or in combination with SR 4317 (1000 μmol/kg). Tumours were excised 18 hr after treatment, dissociated enzymatically, and plated to determine the number of clonogenic survivors. Values are geometric means and error bars are standard errors of the mean. Horizontal lines show historical values for untreated controls and radiation only (solid lines are means, dashed lines are 95% confidence limits. p values were determined by one-way ANOVA using only data within this experiment.
# The utility of SR 4317 as a potentiator of the hypoxic cytotoxicity of TPZ was assessed in an in vivo model (HT29 tumour xenografts) as illustrated in FIG. 7. In this experiment tumour response was determined by excising tumours 18 hr after treatment and quantifying the number of clonogenic survivors by plating in vitro. TPZ was administered at a sub-efficacious dose (0.133 mmol/kg), 5 minutes after whole body radiation (20 Gy). […] No significant cytotoxicity was observed when the two compounds were administered in the absence of irradiation, indicating lack of activity against aerobic cells in tumours (FIG. 7).
# [7] = Homo sapiens, HT-29, 4 hr exposure under anoxic conditions
# [8] = conc of potentiator 3 mM (compound 56: approximate, slight precipitation)
structure (smiles),measurement,setting,value
"CNCCNc1nc2ccccc2[n+]([O-])n1 [Compound 130, N^1-Methyl-#f-(1-oxido-1,2,4-benzotriazin-3-yl)-1,2-ethanediamine]",TPR (TPZ potentiation ratio) = TPZ IC50 without potentiator/TPZ IC50 with potentiator,[1]; conc of potentiator 1.0 mM,6.1
same,pIC50,[2]; [7],2.64
same,solubility,[3],3000 µM
"COc1nc2ccccc2[n+]([O-])n1 [Compound 71, 3-Methoxy-1,2,4-benzotriazine 1-oxide]",TPR (TPZ potentiation ratio) = TPZ IC50 without potentiator/TPZ IC50 with potentiator,[1]; conc of potentiator 0.3 mM,3.3
same,pIC50,[2]; [7],< 3.52
same,solubility,[3],300 µM
"Cc1ncc([N+](=O)[O-])n1CCO [metronidazole, reference compound]",Relative dose potency for potentiation of the hypoxic cytotoxicity of TPZ,[4],lower dose potency than SR 4317
same,Relative potency for radiosensitization of hypoxic HT29 cells,[5],misonidazole>metronidazole=SR4317
"N#CCNc1nc2ccccc2[n+]([O-])n1 [Compound 25, 2-[(1-Oxido-1,2,4-benzotriazin-3-yl)amino]acetonitrile]",TPR (TPZ potentiation ratio) = TPZ IC50 without potentiator/TPZ IC50 with potentiator,[1]; conc of potentiator 0.2 mM,1.9
same,pIC50,[2]; [7],< 3.52
same,solubility,[3],300 µM
"[O-][n+]1nc(CCO)nc2ccccc21 [Compound 61, 3-(2-Hydroxyethyl)-1,2,4-benzotriazine 1-oxide]",TPR (TPZ potentiation ratio) = TPZ IC50 without potentiator/TPZ IC50 with potentiator,[1]; [8],1.2
same,pIC50,[2]; [7],< 2.52
same,solubility,[3],3000 µM
"CN(C)CCNc1nc2ccccc2[n+]([O-])n1 [Compound 37, N^1,N^1-Dimethyl-N^2-(1-oxido-1,2,4-benzotriazin-3-yl)-1,2-ethanediamine]",TPR (TPZ potentiation ratio) = TPZ IC50 without potentiator/TPZ IC50 with potentiator,[1]; conc of potentiator 1.0 mM,13.9
same,pIC50,[2]; [7],< 3.00
same,solubility,[3],1000 µM
"CSc1cccc2c1nc(N)n[n+]2[O-] [Compound 3ad, 5-Methylsulfanyl-1,2,4-benzotriazin-3-amine 1-oxide]",melting point,,248 to 252 °C
"Nc1nc2ccc(OCCBr)cc2[n+]([O-])n1 [Compound 15, 7-(2-Bromoethoxy)-1,2,4-benzotriazin-3-amine 1-oxide]",melting point,,228 to 230 °C
"Nc1nc2ccc(OCCN3CCOCC3)cc2[n+]([O-])n1 [Compound 17, 7-[2-(4-Morpholinyl)ethoxy]-1,2,4-benzotriazin-3-amin 1-oxide]",melting point,,175 to 181 °C
"CCN(CC)CCNc1nc2cc(C(C)C)ccc2[n+]([O-])n1 [Compound 148, N^1-(6-Isopropyl-1-oxido-1,2,4-benzotriazin-3-yl)-N^2,N^2-diethyl-1,2-ethanediamine]",melting point,,60 to 62 °C
"CC(C)(C)c1ccc2c(c1)nc(NCCN1CCCCC1)n[n+]2[O-] [Compound 158, 6-tert-Butyl-N-[2-(1-piperidinyl)ethyl]-1,2,4-benzotriazin-3-amine 1-Oxide]",melting point,,145 to 148 °C
"Cc1ccc2c(c1)nc(CCO)n[n+]2[O-] [Compound 81, 2-(6-Methyl-1-oxido-1,2,4-benzotriazin-3-yl)ethanol]",melting point,,121 to 123 °C
"COCC(O)Cn1ccnc1[N+](=O)[O-] (centres unmarked) [misonidazole, reference compound]",Relative dose potency for potentiation of the hypoxic cytotoxicity of TPZ,"[4]; TPZ 30 μM, anoxic HT29 cells 5×10^5/ml, drug exposure 1 hr",lower dose potency than SR 4317
same,Relative potency for radiosensitization of hypoxic HT29 cells,[5],misonidazole>metronidazole=SR4317
"Nc1n[n+]([O-])c2ccccc2[n+]1[O-] [TPZ, tirapazamine, reference compound]",Killing of the (hypoxic) cells surviving radiation,[6],did not result in statistically significant killing
same,pIC50,"[1]; Homo sapiens, HT-29, mean ± sem, n = 4, read-out: IC50 for TPZ alone",5.17
"Nc1nc2ccc(Cl)cc2[n+]([O-])n1 [Compound 3l, 7-Chloro-1,2,4-benzotriazin-3-amine 1-oxide]",melting point,,309 °C (dec.)
"CN(C)CCCNc1nc2ccccc2[n+]([O-])n1 [Compound 44, N^1-(1-Oxido-1,2,4-benzotriazin-3-yl)-N^3,N^3-dimethyl-1,3-propan diamin]",TPR (TPZ potentiation ratio) = TPZ IC50 without potentiator/TPZ IC50 with potentiator,[1]; conc of potentiator 0.3 mM,1.2
same,pIC50,[2]; 4 hr exposure under anoxic conditions,3.08
same,Solubility limit,[3],3000 µM
"C=Cc1nc2ccccc2[n+]([O-])n1 [Compound 59, 3-Vinyl-1,2,4-benzotriazine 1-oxide]",melting point,,85 to 86 °C
"CCc1nc2cc(F)ccc2[n+]([O-])n1 [Compound 160, 3-Ethyl-6-fluoro-1,2,4-benzotriazine 1-oxide]",melting point,,122 to 124 °C
"CC(C)(C)c1ccc2c(c1)nc(N)n[n+]2[O-] [Compound 153, 6-tert-Butyl-1,2,4-benzotriazin-3-amine 1-Oxide]",melting point,,209 to 212 °C
"Nc1nc2c(Cl)cccc2[n+]([O-])n1 [Compound 3aa, 5-Chloro-1,2,4-benzotriazin-3-amine 1-oxide]",melting point,,251 to 254 °C
"Cc1cc(C)c2c(c1)nc(NCCN1CCCCC1)n[n+]2[O-] [Compound 110, 6,8-Dimethyl-N-[2-(1-piperidinyl)ethyl]-1,2,4-benzotriazin-3-amine 1-oxide]",melting point,,177 to 178 °C
"Cc1cc2nc(NCCNC(=O)OC(C)(C)C)n[n+]([O-])c2cc1C [Compound 105, tert-Butyl 2-[(6,7-dimethyl-1-oxido-1,2,4-benzotriazin-3-yl)amino]ethylcarbamate]",melting point,,226 to 228 °C
"COc1ccc2nc(NCCN(C)C)n[n+]([O-])c2c1 (as salt: hydrochloride) [Compound 92, N^1-(7-Methoxy-1-oxido-1,2,4-benzotriazin-3-yl)-N^2,N^2-dimethyl-1,2-ethanediamine]",melting point,,231 to 235 °C
"CCc1nc2ccccc2[n+]([O-])n1 [Compound 56, 3-Ethyl-1,2,4-benzotriazine 1-oxide]",TPR (TPZ potentiation ratio) = TPZ IC50 without potentiator/TPZ IC50 with potentiator,[1]; [8],1.3
same,pIC50,[2]; [7],< 2.52
same,solubility,[3],3000 µM
"Nc1nc2ccc(C(F)(F)F)cc2[n+]([O-])n1 [Compound 3m, 7-Trifluoromethyl-1,2,4-benzotriazin-3-amine 1-oxide]",melting point,,290 °C (dec.)
"Cc1cccc2nc(NCCN(C)C)n[n+]([O-])c12 [Compound 101, N^1,N^1-Dimethyl-N^2-(8-methyl-1-oxido-1,2,4-benzotriazin-3-yl)-1,2-ethanediamine]",melting point,,121 to 123 °C
"Cc1ccc2c(c1)nc(NCCN1C(C)CCCC1C)n[n+]2[O-] (centres unmarked) [Compound 78, N-[2-(2,6-Dimethyl-1-piperidinyl)ethyl]-6-methyl-1,2,4-benzotriazin-3-amine 1-oxide]",melting point,,162 to 165 °C
"CC(C)(C)OC(=O)NCCCNc1nc2ccccc2[n+]([O-])n1 [Compound 29, tert-Butyl 3-[(1-oxido-1,2,4-benzotriazin-3-yl)amino]propylcarbamate]",melting point,,145 to 147 °C
"CCc1nc2ccc(OCCN3CCOCC3)cc2[n+]([O-])n1 [Compound 99, 3-Ethyl-7-[2-(4-morpholinyl)ethoxy]-1,2,4-benzotriazine 1-oxide]",melting point,,99 to 101 °C
"COc1ccc2c(c1)nc(Cl)n[n+]2[O-] [Compound 83, 3-Chloro-6-methoxy-1,2,4-benzotriazine 1-oxide]",melting point,,196 to 199 °C
